Test results from patent US9593149B2, “Amylin and calcitonin receptor agonist” (Novo Nordisk A/S, priority 2014, dated 2017).
In brackets after ≈: the same amount, converted by molar mass. Numbered stars: 1 amine (or outer) side, 2 acyl side, 3 side chain; on linkers, the order of the positions; unused ones are H or OH. Side chains are listed from the residue outwards. Peptide text beside a SMILES is read from it. * marks the point of attachment. C20 diacid = O=C(O)CCCCCCCCCCCCCCCCCCC(=O)*; γGlu = O=C(O)[C@H](CCC(=O)[*:2])N[*:1]; C14 diacid = O=C(O)CCCCCCCCCCCCC(=O)*

Key:
[1] = Assay (IV) determination of solubility; assay type: physicochemical
Experimental: Assay (IV)—Determination of Solubility
The mimylin peptide was dissolved in water at ˜500 nmol/ml and mixed 1:1 with a series of buffers (100 mM glycylglycine pH 3.0, 100 mM glycylglycine pH 4.0, 100 mM glycylglycine pH 5.0, 100 mM bistrispropane pH 6.0, 100 mM bistrispropane pH 6.5, 100 mM bistrispropane pH 7.0, 100 mM bistrispropane pH 7.5, 100 mM bistrispropane pH 8.0).

[2] = target: T1, rat calcitonin receptor (Rattus norvegicus, UniProt P32214); experiment: Assay (VIII) binding to the rat calcitonin receptor; conditions: membranes; read-out: rCT-R binding IC50
T1 construct: expressed in transfected cells; host or cells: BHK tk'ts 13 (transient, FuGENE 6)
T1 sequence (P32214 25-479 isoform P32214-2 limits assumed): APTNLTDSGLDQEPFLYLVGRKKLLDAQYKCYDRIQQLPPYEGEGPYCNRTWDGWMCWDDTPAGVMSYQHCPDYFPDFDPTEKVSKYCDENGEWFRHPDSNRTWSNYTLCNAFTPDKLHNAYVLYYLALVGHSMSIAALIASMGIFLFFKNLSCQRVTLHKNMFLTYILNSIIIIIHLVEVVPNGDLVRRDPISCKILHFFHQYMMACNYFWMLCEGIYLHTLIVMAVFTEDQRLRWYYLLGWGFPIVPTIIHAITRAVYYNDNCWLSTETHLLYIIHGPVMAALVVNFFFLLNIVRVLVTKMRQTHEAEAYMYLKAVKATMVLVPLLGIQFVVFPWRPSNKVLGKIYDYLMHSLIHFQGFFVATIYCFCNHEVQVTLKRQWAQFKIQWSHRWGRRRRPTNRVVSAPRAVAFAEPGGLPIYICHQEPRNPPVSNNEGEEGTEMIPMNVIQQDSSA
Experimental: The morning after, the plates were washed three times in HBSS (4° C.), and lyzed in Lysis buffer (0.1 M NaOH), 1% SDS. Scintillation cocktail (MicroScint40®) was added and the plates were shaken at 500 rpm for a short period. The plate was incubated at room temperature in the dark for 1 hour and Read on a TopCounter™ (Packard). The IC50 was calculated using (one site binding competition analysis) GraphPad Prism5 as a measure of receptor affinity. Assay (VIII)—Determination of Binding to the Rat Calcitonin Receptor
The assay was performed as described above (Assay (VII)—Determination of binding to the human calcitonin receptor) with the exception that we used membranes prepared from BHK tk'ts 13 cells that were transiently transfected with the rat calcitonin receptor. The BHK tk'ts 13 cells were transiently transfected with rat calcitonin receptor using FuGENE® 6 (Roche), according to the manufacturer's recommendations. Cells were grown in DMEM with 10% FBS and 1% Pen/Strep.

Solubility ([1]; pH 3.0)	Solubility ([1]; pH 4.0)	Solubility ([1]; pH 5.0)	Solubility ([1]; pH 6.0)	Solubility ([1]; pH 6.5)	Solubility ([1]; pH 7.0)	Solubility ([1]; pH 7.5)	Solubility ([1]; pH 8.0)	IC50 [2] [nM]	solubility at 18 h ([1]; pH 5.0) [µM]	SMILES
≧200 μM	≧200 μM	≧200 μM	≧200 μM	≧200 μM	≧200 μM	≧200 μM	≧200 μM	0.123		CC(C)C[C@H](NC(=O)[C@H](C)NC(=O)[C@H](C)NC(=O)[C@@H](NC(=O)[C@H](CO)NC(=O)[C@H](CC(C)C)NC(=O)[C@H](CCC(=O)O)NC(=O)[C@H](CO)NC(=O)[C@H](C)NC(=O)CCCCCCCCCCCCC(=O)O)[C@@H](C)O)C(=O)NCC(=O)N[C@@H](CCCNC(=N)N)C(=O)N[C@@H](CC(C)C)C(=O)N[C@@H](CO)C(=O)N[C@@H](C)C(=O)N[C@@H](CCC(=O)O)C(=O)N[C@@H](CC(C)C)C(=O)N[C@@H](Cc1cnc[nH]1)C(=O)N[C@@H](CCC(=O)O)C(=O)N[C@@H](CC(C)C)C(=O)N[C@@H](C)C(=O)N[C@H](C(=O)N[C@@H](CC(C)C)C(=O)N1CCC[C@H]1C(=O)N[C@@H](CCCNC(=N)N)C(=O)N[C@H](C(=O)N[C@@H](CCC(=O)O)C(=O)N[C@H](C(=O)NCC(=O)N[C@@H](CO)C(=O)NCC(=O)N[C@@H](CO)C(=O)N1CCC[C@H]1C(N)=O)[C@@H](C)O)[C@@H](C)O)[C@@H](C)O [compound 51, [N-terminal(C14 diacid), des1, 30S, 31G]mimylin] ({C14 diacid}-ASELSTAALGRLSAELHELATLPRTETGSGSP-NH2)
≧200 μM	≧200 μM	≧200 μM	≧200 μM	≧200 μM	≧200 μM	≧200 μM	≧200 μM	0.065		CC(C)C[C@H](NC(=O)[C@H](C)NC(=O)[C@H](C)NC(=O)[C@@H](NC(=O)[C@H](CO)NC(=O)[C@H](CC(C)C)NC(=O)[C@H](CCC(=O)O)NC(=O)[C@H](CO)NC(=O)[C@H](C)N)[C@@H](C)O)C(=O)NCC(=O)N[C@@H](CCCNC(=N)N)C(=O)N[C@@H](CC(C)C)C(=O)N[C@@H](CO)C(=O)N[C@@H](C)C(=O)N[C@@H](CCCCNC(=O)CC[C@H](NC(=O)CCCCCCCCCCCCCCCCCCC(=O)O)C(=O)O)C(=O)N[C@@H](CC(C)C)C(=O)N[C@@H](Cc1cnc[nH]1)C(=O)N[C@@H](CCC(=O)O)C(=O)N[C@@H](CC(C)C)C(=O)N[C@@H](C)C(=O)N[C@H](C(=O)N[C@@H](CC(C)C)C(=O)N1CCC[C@H]1C(=O)N[C@@H](CCCNC(=N)N)C(=O)N[C@H](C(=O)N[C@@H](CCC(=O)O)C(=O)N[C@H](C(=O)NCC(=O)N[C@@H](CO)C(=O)NCC(=O)N[C@@H](CO)C(=O)N1CCC[C@H]1C(N)=O)[C@@H](C)O)[C@@H](C)O)[C@@H](C)O [compound 53, [des1, 16K(C20 diacid-gGlu), 30S, 31G]mimylin] (H-ASELSTAALGRLSAK([γGlu-C20 diacid])LHELATLPRTETGSGSP-NH2)
≧200 μM	≧200 μM	≧200 μM	≧200 μM	≧200 μM	≧200 μM	≧200 μM	≧200 μM	0.044		CC(C)C[C@H](NC(=O)[C@H](C)NC(=O)[C@H](C)NC(=O)[C@@H](NC(=O)[C@H](CO)NC(=O)[C@H](CC(C)C)NC(=O)[C@H](CCC(=O)O)NC(=O)[C@H](CO)NC(=O)[C@H](C)N)[C@@H](C)O)C(=O)NCC(=O)N[C@@H](CCCNC(=N)N)C(=O)N[C@@H](CC(C)C)C(=O)N[C@@H](CO)C(=O)N[C@@H](C)C(=O)N[C@@H](CCC(=O)O)C(=O)N[C@@H](CC(C)C)C(=O)N[C@@H](Cc1cnc[nH]1)C(=O)N[C@@H](CCCCNC(=O)CC[C@H](NC(=O)CCCCCCCCCCCCCCCCCCC(=O)O)C(=O)O)C(=O)N[C@@H](CC(C)C)C(=O)N[C@@H](C)C(=O)N[C@H](C(=O)N[C@@H](CC(C)C)C(=O)N1CCC[C@H]1C(=O)N[C@@H](CCCNC(=N)N)C(=O)N[C@H](C(=O)N[C@@H](CCC(=O)O)C(=O)N[C@H](C(=O)NCC(=O)N[C@@H](CO)C(=O)NCC(=O)N[C@@H](CO)C(=O)N1CCC[C@H]1C(N)=O)[C@@H](C)O)[C@@H](C)O)[C@@H](C)O [compound 54, [des1, 19K(C20 diacid-gGlu), 30S, 31G]mimylin] (H-ASELSTAALGRLSAELHK([γGlu-C20 diacid])LATLPRTETGSGSP-NH2)
≧200 μM	≧200 μM		≧200 μM	≧200 μM	≧200 μM	≧200 μM	≧200 μM	0.023	73 (≈ 273 µg/mL)	CC(C)C[C@H](NC(=O)[C@H](C)NC(=O)[C@H](C)NC(=O)[C@@H](NC(=O)[C@H](CO)NC(=O)[C@H](CC(C)C)NC(=O)[C@H](CCC(=O)O)NC(=O)[C@H](CO)NC(=O)[C@H](C)NC(=O)CC[C@H](NC(=O)CCCCCCCCCCCCCCCCCCC(=O)O)C(=O)O)[C@@H](C)O)C(=O)NCC(=O)N[C@@H](CCCNC(=N)N)C(=O)N[C@@H](CC(C)C)C(=O)N[C@@H](CO)C(=O)N[C@@H](C)C(=O)N[C@@H](CCC(=O)O)C(=O)N[C@@H](CC(C)C)C(=O)N[C@@H](Cc1cnc[nH]1)C(=O)N[C@@H](CCC(=O)O)C(=O)N[C@@H](CC(C)C)C(=O)N[C@@H](C)C(=O)N[C@H](C(=O)N[C@@H](CC(C)C)C(=O)N1CCC[C@H]1C(=O)N[C@@H](CCCNC(=N)N)C(=O)N[C@H](C(=O)N[C@@H](CCC(=O)O)C(=O)N[C@H](C(=O)NCC(=O)N[C@@H](CO)C(=O)NCC(=O)N[C@@H](CO)C(=O)N[C@@H](Cc1ccc(O)cc1)C(N)=O)[C@@H](C)O)[C@@H](C)O)[C@@H](C)O [compound 59, [N-terminal(C20 diacid-gGlu), des1, 30S, 31G, 33Y]mimylin] ({C20 diacid-γGlu}-ASELSTAALGRLSAELHELATLPRTETGSGSY-NH2)
≧200 μM	≧200 μM	≧200 μM	≧200 μM	≧200 μM	≧200 μM	≧200 μM	≧200 μM	0.02		CC(C)C[C@H](NC(=O)[C@H](C)NC(=O)[C@H](C)NC(=O)[C@@H](NC(=O)[C@H](CO)NC(=O)[C@H](CC(C)C)NC(=O)[C@H](CCC(=O)O)NC(=O)[C@H](CO)NC(=O)[C@H](C)NC(=O)CC[C@H](NC(=O)CCCCCCCCCCCCCCCCCCC(=O)O)C(=O)O)[C@@H](C)O)C(=O)NCC(=O)N[C@@H](CCCNC(=N)N)C(=O)N[C@@H](CC(C)C)C(=O)N[C@@H](CO)C(=O)N[C@@H](C)C(=O)N[C@@H](CCC(=O)O)C(=O)N[C@@H](CC(C)C)C(=O)N[C@@H](Cc1cnc[nH]1)C(=O)N[C@@H](CCC(=O)O)C(=O)N[C@@H](CC(C)C)C(=O)N[C@@H](C)C(=O)N[C@H](C(=O)N[C@@H](CC(C)C)C(=O)N1CCC[C@H]1C(=O)N[C@@H](CCCNC(=N)N)C(=O)N[C@H](C(=O)N[C@@H](CCC(=O)O)C(=O)N[C@H](C(=O)NCC(=O)N[C@@H](CO)C(=O)NCC(=O)N[C@@H](CO)C(=O)N[C@@H](Cc1cnc[nH]1)C(N)=O)[C@@H](C)O)[C@@H](C)O)[C@@H](C)O [compound 60, [N-terminal(C20 diacid-gGlu), des1, 30S, 31G, 33H]mimylin] ({C20 diacid-γGlu}-ASELSTAALGRLSAELHELATLPRTETGSGSH-NH2)
